The values that follow come from US9573954B2, “Pyrazolopyrimidine compounds” (University Health Network, priority 2012, dated 2017).

SMILES strings stand for the structures. Like-named read-outs stand apart in the source and are kept apart here.

For one assay, the target named is T1, human TTK (Homo sapiens, UniProt P33981).
T1 construct: Active TTK was purchased from Invitrogen as an amino terminal GST fusion of full length human TTK; purchased Invitrogen
T1 sequence (P33981 1-857): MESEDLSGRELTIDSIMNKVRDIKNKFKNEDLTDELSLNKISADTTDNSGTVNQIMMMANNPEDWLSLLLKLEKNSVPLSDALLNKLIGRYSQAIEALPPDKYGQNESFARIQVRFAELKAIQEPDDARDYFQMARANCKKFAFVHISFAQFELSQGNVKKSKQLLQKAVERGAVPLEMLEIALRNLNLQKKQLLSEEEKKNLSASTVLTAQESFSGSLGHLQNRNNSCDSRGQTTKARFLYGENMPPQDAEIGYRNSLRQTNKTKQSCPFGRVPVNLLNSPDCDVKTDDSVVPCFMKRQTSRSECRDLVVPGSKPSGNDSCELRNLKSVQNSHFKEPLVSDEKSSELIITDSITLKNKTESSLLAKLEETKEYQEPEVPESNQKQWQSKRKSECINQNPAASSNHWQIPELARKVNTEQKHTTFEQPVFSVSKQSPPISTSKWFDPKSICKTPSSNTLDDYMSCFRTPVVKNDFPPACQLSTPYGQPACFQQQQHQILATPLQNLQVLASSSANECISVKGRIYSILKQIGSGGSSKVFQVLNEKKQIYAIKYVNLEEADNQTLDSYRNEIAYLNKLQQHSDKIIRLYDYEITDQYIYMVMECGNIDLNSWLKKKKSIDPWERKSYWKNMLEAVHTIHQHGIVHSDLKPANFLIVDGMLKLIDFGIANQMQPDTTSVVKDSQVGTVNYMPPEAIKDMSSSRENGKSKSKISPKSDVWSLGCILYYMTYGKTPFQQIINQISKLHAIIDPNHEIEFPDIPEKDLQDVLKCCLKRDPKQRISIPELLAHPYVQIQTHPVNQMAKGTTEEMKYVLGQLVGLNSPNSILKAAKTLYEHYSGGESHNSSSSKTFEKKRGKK
Briefly: TTK inhibition assay (indirect ELISA). It is filed as biochemical. On the procedure:
Active TTK was purchased from Invitrogen as an amino terminal GST fusion of full length human TTK.
TTK activity was measured using an indirect ELISA detection system.
Compounds were pre-incubated in the presence of enzyme for 5 minutes prior to addition of ATP and the activity remaining quantified using the above described activity assay. The % Inhibition of a compound was determined using the following formula; % Inhibition=100×(1−(experimental value−background value)/(high activity control−background value)). The IC50 value was determined using a non-linear 4 point logistic curve fit (XLfit4, IDBS) with the formula; (A+(B/(1+((x/C)^D)))), where A=background value, B=range, C=inflection point, D=curve fit parameter.
For orientation: An ELISA detects its analyte on a solid surface through an enzyme-linked reagent.

In assay [1] the test system is colon cancer cells (HCT116). Briefly: Cancer cell line growth inhibition, Sulforhodamine B assay, HCT116. It is filed as cell-based. To be noted: Homo sapiens, HCT-116, HCT116 colon cancer cell line; read-out: Cancer Cell Line GI50 Range HCT116. On the procedure:
(§1) Breast cancer cells (MDA-MB-231 and MDA-MB-468), colon cancer cells (HCT116) and ovarian cancer cells (PA-1 and OVCAR-3) were seeded (1000 to 4000 in 80 μl per well depending on the cell growth rate) into 96 well plates 24 hours before compound overlay. Compounds were prepared as 10 mM stock solutions in 100% DMSO which were diluted with DMEM (Dulbecco's Modified Eagle's Medium) cell growth Medium (Invitrogen, Burlington, ON, Canada) containing 10% FBS (Fetal Bovine Serum) to concentrations ranging from 50 nM to 250 μM. Aliquots (20 μl) from each concentration were overlaid to 80 μl of the pre-seeded cells in the 96 well plates to make final concentrations of 10 nM to 50 μM. The cells were cultured for 5 days before the Sulforhodamine B assay (SRB) was performed to determine the compound's cell growth inhibition activity.
(§2) Sulforhodamine B (purchased from Sigma, Oakville, ON, Canada) is a water-soluble dye that binds to the basic amino acids of the cellular proteins. Thus, colorimetric measurement of the bound dye provides an estimate of the total protein mass that is related to the cell number. the cells are fixed in situ by gently aspirating off the culture media and adding 50 μl ice cold 10% Trichloroacetic Acid (TCA) per well and incubate at 4° C. for 30-60 min, The plates are washed with H2O five times and allowed to air dry for 5 min. Addition of 50 μl 0.4% (w/v) SRB solution in 1% (v/v) acetic acid to each well and incubation for 30 min at RT completes the staining reaction. Following staining, plates are washed four times with 1% acetic acid to remove unbound dye and then allowed to air dry for 5 min. The stain is solubilized with 100 μl of 10 mM Tris pH 10.5 per well. Absorbance is read at 570 nm.
(§3) The percentage (%) of relative growth inhibition was calculated by comparing to DMSO treated only cells (100%). GI50's were determined for compounds with cytotoxic activity. The GI50 was calculated using GraphPad PRISM software (GraphPad Software, Inc., San Diego, Calif., USA).
(§4) In Table 1 below, GI50 value ranges for compound examples against breast cancer cell lines (MDA-MB-468), colon cancer cell lines (HCT116) and ovarian cancer cell lines (PA-1) are given.
In Table 2 below, GI50 value ranges for compound examples against breast cancer cell lines (MDA-MB-231), colon cancer cell lines (HCT116) and ovarian cancer cell lines (PA-1) are given.
(§5) In Table 3 below, GI50 value ranges for compound examples against breast cancer cell lines (MDA-MB-468), colon cancer cell lines (HCT116) and ovarian cancer cell lines (OVCAR-3) are given.
A general note: The SRB assay estimates cell density from bound dye.

The test system of assay [2] is breast cancer cells (MDA-MB-468). Briefly: Cancer cell line growth inhibition, Sulforhodamine B assay, MDA-MB-468. It counts as cell-based. Particulars: Homo sapiens, MDA-MB-468, MDA-MB-468 breast cancer cell line; read-out: Cancer Cell Line GI50 Range MDA-MB-468. On the procedure:
as §1, §2, §3, §4, §5

Assay [3] relates to ovarian cancer cells (OVCAR-3). Briefly: Cancer cell line growth inhibition, Sulforhodamine B assay, OVCAR-3. It counts as cell-based. Particulars: Homo sapiens, OVCAR-3, OVCAR-3 ovarian cancer cell line; read-out: Cancer Cell Line GI50 Range OVCAR-3. On the procedure: as §1, §2, §3, §5
Setting [4] is: 100 μM ATP, read-out: TTK IC50 Range.

For orientation: IC50 means the concentration that inhibits the measured activity by half. What is called GI50 is the concentration giving 50% growth inhibition. As for `Cc1cc(-c2cnn3c(NCC4(F)CCN(C)CC4)cc(Oc4cccnc4)nc23)ccc1C(=O)NC1CC1` [Example C147], the IC50 at human TTK (setting [4]) was under 100 nM. Further, the GI50 in assay [1] is 100 to 500 nM; in assay [2] it was 100 to 500 nM; in assay [3], over 500 nM.

Take `Cc1cc(-c2cnn3c(NCC4CCOCC4)cc(Oc4ccc[n+]([O-])c4)nc23)ccc1C(=O)NC1CC1` [Example C30, 3-((3-(4-(cyclopropylcarbamoyl)-3-methylphenyl)-7-(((tetrahydro-2H-pyran-4-yl)methyl)amino)pyrazolo[1,5-a]pyrimidin-5-yl)oxy)pyridine-1-oxide]: the IC50 on human TTK (setting [4]) is under 100 nM. Moreover, the GI50 in assay [1], in assay [2] and in assay [3] was over 500 nM each time.

As for `Cc1cc(-c2cnn3c(NCC4CCOCC4)cc(N4CC[C@H](O)C4)nc23)ccc1C(=O)NC1CC1` [Example C143], the IC50 on human TTK (setting [4]) lay within 100 to 500 nM. In addition, the GI50 in assay [1], in assay [2] and in assay [3] was over 500 nM each time.

With `Cc1cc(-c2cnn3c(NCC4CCOCC4)cc(N[C@H](C(N)=O)C(C)C)nc23)ccc1C(=O)NC1CC1` [Example C111], the 50% inhibitory concentration (IC50) at human TTK (setting [4]) was under 100 nM. Also, the GI50 in assay [1], in assay [2] and in assay [3] was 100 to 500 nM throughout.

In the case of `Cc1cc(-c2cnn3c(NCC(C)C)cc(N[C@H]4CCCC[C@H]4O)nc23)ccc1C(=O)NC1CC1` [Example C157], the IC50 at human TTK (setting [4]) was under 100 nM. For the same compound, the GI50 in assay [1], in assay [2] and in assay [3] was at most 100 nM throughout.

With `Cc1cc(-c2cnn3c(NC[C@H]4CCOC4)cc(N[C@H]4CCCC[C@H]4O)nc23)ccc1C(=O)NC1CC1` [Example C35, N-cyclopropyl-4-(5-(((1S,2R)-2-hydroxycyclohexyl)amino)-7-((((R)-tetrahydrofuran-3-yl)methyl)amino)pyrazolo[1,5-a]pyrimidin-3-yl)-2-methylbenzamide], on human TTK (setting [4]), the IC50 is under 100 nM. Besides, the GI50 in assay [1], in assay [2] and in assay [3] was at most 100 nM each time.

For `Cc1cc(-c2cnn3c(NCC4(F)CCNCC4)cc(OC4CCCC4)nc23)ccc1C(=O)NC1CC1` [Example C173], the concentration for half-maximal inhibition (IC50) on human TTK (setting [4]) was under 100 nM. The GI50 in assay [1] was 100 to 500 nM; in assay [2], over 500 nM; in assay [3], over 500 nM.

On to `CC[C@H](Nc1cc(NC[C@@H]2CCOC2)n2ncc(-c3ccc(C(=O)NC4CC4)c(C)c3)c2n1)[C@H](C)O` [Example C134], for which the IC50 at human TTK (setting [4]) is under 100 nM. Also, the GI50 in assay [1], in assay [2] and in assay [3] was 100 to 500 nM throughout.

In the case of `Cc1cc(-c2cnn3c(NCCN4CCOCC4)cc(Oc4ccc(F)cc4)nc23)ccc1C(=O)NC1CC1` [Example C181], on human TTK (setting [4]), the IC50 was under 100 nM. Besides, the GI50 in assay [1] is at most 100 nM; in assay [2], 100 to 500 nM; in assay [3] it was 100 to 500 nM.

Consider `Cc1cc(-c2cnn3c(NCC4CCOCC4)cc(NC4CCC4)nc23)ccc1C(=O)NC1CC1` [Example C109], for which the IC50 at human TTK (setting [4]) was under 100 nM. Besides, the GI50 in assay [1] is at most 100 nM; in assay [2], 100 to 500 nM; in assay [3], 100 to 500 nM.

On to `CC(=O)Nc1cccc(Oc2nc(NCC3CCOCC3)n3ncc(-c4ccc(C(=O)NC5CC5)c(C)c4)c3n2)c1` [Example C19], for which, on human TTK (16 μM ATP (Sigma cat# A7699), read-out: TTK IC50 Range (denoted with an asterisk)), the IC50 is under 100 nM. In addition, the values for the GI50 in assay [1], in assay [2] and in assay [3] were over 500 nM, 100 to 500 nM and over 500 nM, respectively.

On to `Cc1cc(-c2cnn3c(NCC4CCOCC4)cc(N[C@H](CO)C(C)(C)C)nc23)ccc1C(=O)NC1CC1` [Example C78], for which the IC50 at human TTK (setting [4]) was under 100 nM. Also, the GI50 in assay [1], in assay [2] and in assay [3] was 100 to 500 nM each time.

As for `Cc1cc(-c2cnn3c(NCCN4CCCCC4)cc(Oc4cccc(F)c4)nc23)ccc1C(=O)NC1CC1` [Example C180], the IC50 on human TTK (setting [4]) was under 100 nM. Moreover, the GI50 is at most 100 nM in assay [1], 100 to 500 nM in assay [2] and 100 to 500 nM in assay [3].

As to `Cc1cc(-c2cnn3c(NCC4CCOCC4)cc(N[C@@H](CO)C(C)C)nc23)ccc1C(=O)NC1CC1` [Example C121], the IC50 at human TTK (setting [4]) is under 100 nM. In addition, the GI50 was 100 to 500 nM in assay [1], 100 to 500 nM in assay [2] and over 500 nM in assay [3].

On to `CCO[C@H]1COC[C@@H]1Nc1cc(NCC2CCOCC2)n2ncc(-c3ccc(C(=O)NC4CC4)c(C)c3)c2n1` [Example C90], for which the IC50 at human TTK (setting [4]) is under 100 nM. Also, the GI50 in assay [1] was 100 to 500 nM; in assay [2], 100 to 500 nM; in assay [3] it was over 500 nM.

With `Cc1cc(-c2cnn3c(NCCN4CCOCC4)cc(Oc4cccnc4)nc23)ccc1C(=O)NC1CC1` [Example C51], the IC50 on human TTK (setting [4]) is under 100 nM. The GI50 in assay [1], in assay [2] and in assay [3] was 100 to 500 nM in each case.

With `Cc1cc(-c2cnn3c(NCC4CCOCC4)cc(NCC4CCOCC4)nc23)ccc1C(=O)NC1CC1` [Example C57], the IC50 on human TTK (setting [4]) is under 100 nM. Besides, the GI50 in assay [1], in assay [2] and in assay [3] was 100 to 500 nM in each case.

Turning to `Cc1cc(-c2cnn3c(NC[C@H]4C[C@](C)(O)C4)cc(NC4CCCC4)nc23)ccc1C(=O)NC1CC1` [Example C186], at human TTK (setting [4]), the IC50 was under 100 nM. In addition, the GI50 was at most 100 nM in assay [1], 100 to 500 nM in assay [2] and 100 to 500 nM in assay [3].

Consider `Cc1cc(-c2cnn3c(NCC4(O)CCOCC4)cc(NC4CCOCC4)nc23)ccc1C(=O)NC1CC1` [Example C94], for which the IC50 on human TTK (setting [4]) was under 100 nM. Moreover, the GI50 in assay [1], in assay [2] and in assay [3] was over 500 nM each time.

With `Cc1cc(-c2cnn3c(NC[C@H]4C[C@H](O)C4)cc(NC4CCCC4)nc23)ccc1C(=O)NC1CC1` [Example C172], the IC50 on human TTK (setting [4]) is under 100 nM. Further, the GI50 in assay [1], in assay [2] and in assay [3] was at most 100 nM throughout.

Turning to `Cc1cc(-c2cnn3c(NCC4CCOCC4)cc(Oc4cncc(F)c4)nc23)ccc1C(=O)NC1CC1` [Example C56], the IC50 on human TTK (setting [4]) was under 100 nM. The GI50 in assay [1], in assay [2] and in assay [3] was at most 100 nM in each case.
